As to `COc1ccc(C)c(NC(=O)CC2C3CC4CC(C3)CC2C4)c1` (centres unmarked) [Example 1, 2-(2-Adamantyl)-N-(5-methoxy-2-methylphenyl)acetamide], the melting point – broadly, the temperature, or range, at which the solid turns liquid – is 193 to 196 °C.

For the compound `O=C(CC1C2CC3CC(C2)CC1C3)Nc1cccc2[nH]ccc12` (centres unmarked) [Example 2, 2-(2-Adamantyl)-N-1H-indol-4-ylacetamide], the melting point fell in the range of 206 to 208 °C.

The values above are taken from patent US20070037830A1, “2-Adamantyl derivatives as p2X7 receptor antagonists” (ASTRAZENECA AB, priority 2003, published 2007).
